Drawing on US8748626B2, “Oxazole and thiazole compounds as KSP inhibitors” (Novartis AG, priority 2010, dated 2014), this text covers IC50 and GI50 for eight molecules.

For test [1], the target named is motor domain of human KSP (Eg 5, KNSL1) (Homo sapiens (Human), UniProt P52732). Description: Assay for determining KSP activity (microtubule-stimulated ATPase, Biomol Green). The settings on record: KSP motor domain 45 nM, microtubules 35 μg/mL, ATP, 1 hour RT, absorbance 630 nm; read-out: Biological Activity IC50. In kind it is biochemical. The text has this: This example provides a representative in vitro assay for determining KSP activity in vitro. Purified microtubules obtained from bovine brain were purchased from Cytoskeleton Inc. (Denver, Colo., USA). The motor domain of human KSP (Eg 5, KNSL1) was cloned, expressed, and purified to greater than 95% homogeneity. Biomol Green was purchased from Affinity Research Products Ltd. (Matford Court, Exeter, Devon, United Kingdom). Microtubules and KSP motor protein (i.e., the KSP motor domain) were diluted in assay buffer (20 mM Tris-HCl (pH 7.5), 1 mM MgCl2, 10 mM DTT and 0.25 mg/mL BSA) to a final concentration of 35 μg/mL microtubules and 45 nM KSP. The microtubule/KSP mixture was then pre-incubated at 37° C. for 10 min to promote the binding of KSP to microtubules.
To each well of the testing plate (384-well plate) containing 1.25 μL of inhibitor or test compound in DMSO (or DMSO only in the case of controls) were added 25 μL of ATP solution (ATP diluted to a concentration of 300 μM in assay buffer) and 25 μL of the above-described microtubule/KSP solution. The plates were incubated at RT for 1 hour. Following incubation, 65 μL of Biomol Green (a malachite green-based dye that detects the release of inorganic phosphate) was added to each well. The plates were incubated for an additional 5-10 minutes then the absorbance at 630 nm was determined using a Victor II plate reader. The amount of absorbance at 630 nm corresponded to the amount of KSP activity in the samples. The IC50 of each inhibitor or test compound was then determined based on the decrease in absorbance at 630 nm at each concentration, via nonlinear regression using either XLFit for Excel or Prism data analysis software by GraphPad Software Inc.

The test system of a further test is tumor cell lines. The experiment in a line: Inhibition of cellular proliferation in tumor cell lines (CellTiter-Glo). Type of test: cell-based. The settings on record: 50% growth inhibition at 72 hours of continuous compound exposure; cell line not specified; read-out: Biological Activity GI50. The procedure:
Cells are plated in 96-well plates at densities of about 500 cells per well of a 96-well plate and are allowed to grow for 24 hours. The cells are then treated with various concentrations of compounds for 72 hours. Then, 100 μl of CellTiter-Glo® solution are added. The CellTiter-Glo® assay measures the amount of ATP present in the well after lysing the cells; the ATP released is used in an enzymatic reaction including the enzyme Luciferease and its substrate Luciferin. The amount of light emitted is proportional to the amount of ATP, which in turn is proportional to the number of live cells in the well. (see Promega product catalog #G7573, CellTiter-Glo® Luminescent Cell Viability Assay). The cells are then incubated in the dark for 30 minutes. The amount of luminescence is determined for each well using a Wallac Trilux plate reader, which correlates with the number of cells per well. The number of viable cells in the wells that receive only DMSO (0.5%) serve as an indication of 0°/a inhibition, while wells without cells serve as 100% inhibition of cell growth. The compound concentration that results in a 50% growth inhibition (GI50) is determined graphically from sigmoidal dose-response curves of log-transformed dose values versus cell counts (percent of control) at 72 hours of continuous compound exposure.
The cell lines used are listed below.
The cell proliferation assay is performed as described above. • Cancer Cell Lines • Colo 205—colon carcinoma • RPMI 1640+10% FBS+1% L-glutamine+1% P/S+1% NaPyr.+Hepes+4.5 g/L Glucose+1% NaBicarb. • MDA 435—breast cancer—high met • EMEM+10% FBS+1% P/S+1% L-Glutamine+1% NEAA+1% NaPyr+1% vitamins • HCT-15 and HCT116—colon carcinoma • RPMI 1640+10% FBS+1% L-glutamine+1% P/S • Drug Resistant Cell Lines • KB3.1—[…] epidermal carcinoma; parental cell line • Iscove's+10% FBS+1% L-glutamine+1% P/S • KBV1—p-glycoprotein associated multi-drug resistant cell line • RPMI 1640+10% FBS+1% L-glutamine+1% P/S+0.2 ug/mL Vinblastine • KB85—p-glycoprotein associated multi-drug resistant cell line • DMEM+10% FBS+1% L-glutamine+1% P/S+10 ng/mL Colchicine

motor domain of human KSP (Eg 5, KNSL1), sequence (P52732 18-359): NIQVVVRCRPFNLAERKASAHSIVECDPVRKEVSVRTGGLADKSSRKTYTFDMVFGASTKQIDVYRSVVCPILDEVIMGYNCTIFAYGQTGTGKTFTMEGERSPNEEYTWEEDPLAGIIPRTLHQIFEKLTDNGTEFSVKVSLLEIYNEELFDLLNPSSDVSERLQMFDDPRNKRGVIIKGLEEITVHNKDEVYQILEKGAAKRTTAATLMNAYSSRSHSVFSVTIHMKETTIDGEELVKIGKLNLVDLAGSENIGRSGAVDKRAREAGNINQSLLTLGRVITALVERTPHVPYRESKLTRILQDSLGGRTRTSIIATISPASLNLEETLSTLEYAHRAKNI

As to `C[C@H](O)C(=O)N(C[C@@H]1CNC[C@@H]1F)[C@H](c1nc(-c2cc(F)ccc2F)oc1Cc1ccccc1)C(C)(C)C` [Example 6, (S)-N-((S)-1-(5-benzyl-2-(2,5-difluorophenyl)oxazol-4-yl)-2,2-dimethylpropyl)-N-(((3S,4R)-4-fluoropyrrolidin-3-yl)methyl)-2-hydroxypropanamide], the IC50 in test [1] was determined as 1000 nM. Same read-out and setting: under `C[C@H](O)C(=O)N(CC[C@H](N)CF)[C@H](c1nc(-c2cc(F)ccc2F)oc1Cc1ccccc1)C(C)(C)C` [Example 7, (S)-N-((S)-3-amino-4-fluorobutyl)-N-((S)-1-(5-benzyl-2-(2,5-difluorophenyl)oxazol-4-yl)-2,2-dimethylpropyl)-2-hydroxypropanamide] stands 631 nM.

`C[C@H](O)C(=O)N(C[C@@H]1CNC[C@@H]1F)[C@@H](c1nc(-c2cc(F)ccc2F)oc1Cc1ccccc1)C(C)(C)C` [Example 4, (S)-N-((R)-1-(5-benzyl-2-(2,5-difluorophenyl)oxazol-4-yl)-2,2-dimethylpropyl)-N-(((3S,4R)-4-fluoropyrrolidin-3-yl)methyl)-2-hydroxypropanamide]: in test [1], the IC50 was found to be 7.18 nM. In addition, the GI50 with tumor cell lines came out at 3.5 nM.

Consider `CC(C)(C)[C@H](c1nc(-c2cc(F)ccc2F)sc1Cc1ccccc1)N(C[C@@H]1CNC[C@@H]1F)C(=O)[C@@H]1CCCO1` [Example 2, (S)-N-((R)-1-(5-benzyl-2-(2,5-difluorophenyl)thiazol-4-yl)-2,2-dimethylpropyl)-N-(((3S,4R)-4-fluoropyrrolidin-3-yl)methyl)tetrahydrofuran-2-carboxamide], for which, in test [1], the IC50 was found to be 10 nM. In addition, the GI50 in the test with tumor cell lines worked out at 1.4 nM.

For `C[C@H](O)C(=O)N(C[C@@H]1CNC[C@@H]1F)[C@@H](c1nc(-c2cc(F)ccc2F)sc1Cc1ccccc1)C(C)(C)C` [Example 1, (S)-N-((R)-1-(5-benzyl-2-(2,5-difluorophenyl)thiazol-4-yl)-2,2-dimethylpropyl)-N-(((3S,4R)-4-fluoropyrrolidin-3-yl)methyl)-2-hydroxypropanamide], in test [1], the IC50 is 0.84 nM. Moreover, the GI50 in the test with tumor cell lines was determined as 0.18 nM. Regarding `C[C@H](O)C(=O)N(CC[C@H](N)CF)[C@H](c1nc(-c2cc(F)ccc2F)sc1Cc1ccccc1)C(C)(C)C` [Example 8, (S)-N-((S)-3-amino-4-fluorobutyl)-N-((S)-1-(5-benzyl-2-(2,5-difluorophenyl)thiazol-4-yl)-2,2-dimethylpropyl)-2-hydroxypropanamide], in the test on tumor cell lines, the concentration for 50% growth inhibition (GI50) was 944 nM.

Consider `C[C@H](O)C(=O)N(CC[C@H](N)CF)[C@@H](c1nc(-c2cc(F)ccc2F)oc1Cc1ccccc1)C(C)(C)C` [Example 5, (S)-N-((S)-3-amino-4-fluorobutyl)-N-((R)-1-(5-benzyl-2-(2,5-difluorophenyl)oxazol-4-yl)-2,2-dimethylpropyl)-2-hydroxypropanamide], for which the IC50 in test [1] was found to be 2.54 nM. The GI50 with tumor cell lines turned out to be 4.82 nM.

For the molecule `C[C@H](O)C(=O)N(CC[C@H](N)CF)[C@@H](c1nc(-c2cc(F)ccc2F)sc1Cc1ccccc1)C(C)(C)C` [Example 3, (S)-N-((S)-3-amino-4-fluorobutyl)-N-((R)-1-(5-benzyl-2-(2,5-difluorophenyl)thiazol-4-yl)-2,2-dimethylpropyl)-2-hydroxypropanamide], the IC50 in test [1] came out at 2.6 nM. In addition, the 50% growth inhibitory concentration (GI50) in the test on tumor cell lines came to 2.2 nM.
